From patent US10160812B2, “Bispecific HER2 antibodies” (MedImmune, LLC, priority 2014, dated 2018)

B1: 39S: lead optimized monoclonal antibody derived from the 1.39.1 antibody; VH SEQ ID NO:15, VL SEQ ID NO:16 (antibody, V domains shown)
VH: EVQLVESGGGLVKPGGSLRLSCAASGFTFSSYSMSWVRQAPGKGLEWVSSISSSSSYIYYADSVKGRFTISRDNAKNSLYLQMNSLRAEDTAVYYCARGGDAYNYYYFDYWGQGTLVTVSS
VL: DIVMTQTPLSLSVTPGQPASISCKSSQSVFFRSNNKNILAWYLQKPGQPPQLLIYWASSRESGVPDRFSGSGSGTDFTLKISRVEAEDVGVYYCQQYFGSPFTFGPGTKVDIK

Experiments:
MCF7-GTU = test: In vitro cytotoxic activity (Cell Titer Glo); assay type: cell-based, human; conditions: 3 to 4 days
Protocol: (§4) Briefly, cells were harvested, resuspended, and plated in serum-containing culture media at a density of 5,000 to 20,000 per well (depending on the growth kinetics of each cell line) of 96-well plates in a volume of 100 μL. A 2× concentration of each dose of antibody or ADC to be tested was prepared by diluting the test articles in culture medium. One hundred microliters of each test article was added to cells in triplicate such that the final dose curve ranged from 5 nM down to 0.08 pM in a stepwise 1:4 serial dilution series. The treated cells were incubated at 37° C./5% CO2 for 3 to 4 days, depending on the growth kinetics of each particular cell line. Cell viability was determined using Cell Titer Glo according to manufacturer's instructions. Data are analyzed by the GraphPad Prism software and presented as percent growth inhibition relative to the untreated control.

MDA-MB-453 = test: In vitro cytotoxic activity (Cell Titer Glo); assay type: cell-based, human; conditions: MDA-MB-453, 3 to 4 days; read-out: In vitro potency (EC50 in pM)
Protocol: (§5) A panel of human cancer cell lines expressing various levels of HER2 was used to evaluate the cytotoxic activity of bispecific ADC (Table 5 in Example 1). Briefly, cells were harvested, resuspended, and plated in serum-containing culture media at a density of 5,000 to 20,000 per well (depending on the growth kinetics of each cell line) of 96-well plates in a volume of 100 μL. A 2× concentration of each dose of antibody or ADC to be tested was prepared by diluting the test articles in culture medium. One hundred microliters of each test article was added to cells in triplicate such that the final dose curve ranged from 5 nM down to 0.08 pM in a stepwise 1:4 serial dilution series. The treated cells were incubated at 37° C./5% CO2 for 3 to 4 days, depending on the growth kinetics of each particular cell line. Cell viability was determined using Cell Titer Glo according to manufacturer's instructions. Data are analyzed by the GraphPad Prism software and presented as percent growth inhibition relative to the untreated control. EC50 values were determined using Sigmoidal non-linear regression analysis with GraphPad Prism software and were summarized in Table 6.

ST225 model = test: PDX tumor model (HER2-3+ breast cancer); assay type: in vivo, Athymic nude mice; conditions: Bs2-4T at 3 mg/kg
Protocol: All mouse experiments were carried out in compliance with the guidelines published by the Association for Assessment and Accreditation of Laboratory Animal Care (AAALAC) and protocols approved by the MedImmune Institutional Animal Care and Use Committee. Athymic nude mice between 4-8 weeks of age were used in the studies. In subcutaneous CBX models, animals were injected unilaterally on the right flank with tumor cells harvested from culture at a specific passage lot. In orthotopic CBX models, xenografts were established by injecting 5×10^6 cells per mouse (suspended in 50% matrigel) into the mammary fat pad on the right flank of animals. In PDX models, animals are implanted unilaterally on the flank with tumor fragments harvested from host animals each implanted from a specific passage lot. Pre-study tumor volumes were recorded for each experiment beginning approximately one week prior to its estimated start date. When tumors reach the appropriate tumor volume initiation (TVI) range (typically 150-250 mm^3), animals are randomized into treatment and control groups and dosing initiated. […] Animals were observed daily and tumor dimensions and body weights were measured and recorded twice weekly. Tumor volumes are calculated using the following formula: tumor volume=π÷6 (length×width^2). […]

MCF-7 = test: In vitro cytotoxic activity (Cell Titer Glo); assay type: cell-based, human; conditions: MCF-7, 3 to 4 days
Protocol: as §4

JIMT-1 = test: In vitro cytotoxic activity (Cell Titer Glo); assay type: cell-based, human; conditions: JIMT-1, 3 to 4 days
Protocol: as §5

cynomolgus monkey Her2 = test: Capture ELISA binding specificity / species cross-reactivity; conditions: recombinant extracellular domain protein
Source text: (§1) To determine whether 39S retains the binding specificity and species cross-reactivity of its parental antibody AZ1.39.1, binding of 39S to the receptors of human ErbB family (EGFR, HER2, HER3, and HER4), the mouse Her2, and the cynomolgus monkey Her2 was examined by capture ELISA. Briefly, 96-well plates were coated with one of the following recombinant extracellular domain proteins: human EGFR, human HER2, human HER3, human HER4, mouse Her2, or cynomolgus monkey Her2. Antibody to be tested was prepared by diluting in a stepwise 1:3 serial dilution ranging from 50 nM down to 0.28 pM and then added to the wells in duplicate. After one hour of incubation, plates were washed, and goat anti-human IgG Fab HRP-conjugated secondary antibody was added to each well and the plates were incubated for 1 hour. The plates were washed and TMB substrate was added and incubated for 5-20 min to allow color development. The stop solution was added to the wells at the end of reaction and the plates were read at 450 nm. Binding signal (absorbance at 450 nm) was plotted against antibody concentration using Prism software.
(§2) Binding specificity and species cross-reactivity of bispecific antibodies to the recombinant extracellular domain protein of human EGFR, human HER2, human HER3, human HER4, mouse Her2, or cynomolgus monkey Her2 were determined by capture ELISA as described in Example 1.
(§3) To determine whether the conjugation of tubulysin 1508 alters antigen binding specificity and species cross-reactivity, binding activity of bispecific ADC to the recombinant extracellular domain protein of human EGFR, human HER2, human HER3, human HER4, mouse Her2, and cynomolgus monkey Her2 were confirmed by capture ELISA as described in Example 1.

human HER3 = target: T1, human HER3 (Homo sapiens, UniProt P21860); test: as above; conditions: recombinant extracellular domain protein
T1 construct: recombinant extracellular domain proteins: human EGFR, human HER2, human HER3, human HER4, mouse Her2, or cynomolgus monkey Her2
Source text: as §1, §2, §3

human HER4 = target: T2, human HER4 (Homo sapiens, UniProt Q15303); test: as above; conditions: recombinant extracellular domain protein
T2 construct: recombinant extracellular domain proteins: human EGFR, human HER2, human HER3, human HER4, mouse Her2, or cynomolgus monkey Her2
T2 sequence (Q15303 26-651 limits assumed): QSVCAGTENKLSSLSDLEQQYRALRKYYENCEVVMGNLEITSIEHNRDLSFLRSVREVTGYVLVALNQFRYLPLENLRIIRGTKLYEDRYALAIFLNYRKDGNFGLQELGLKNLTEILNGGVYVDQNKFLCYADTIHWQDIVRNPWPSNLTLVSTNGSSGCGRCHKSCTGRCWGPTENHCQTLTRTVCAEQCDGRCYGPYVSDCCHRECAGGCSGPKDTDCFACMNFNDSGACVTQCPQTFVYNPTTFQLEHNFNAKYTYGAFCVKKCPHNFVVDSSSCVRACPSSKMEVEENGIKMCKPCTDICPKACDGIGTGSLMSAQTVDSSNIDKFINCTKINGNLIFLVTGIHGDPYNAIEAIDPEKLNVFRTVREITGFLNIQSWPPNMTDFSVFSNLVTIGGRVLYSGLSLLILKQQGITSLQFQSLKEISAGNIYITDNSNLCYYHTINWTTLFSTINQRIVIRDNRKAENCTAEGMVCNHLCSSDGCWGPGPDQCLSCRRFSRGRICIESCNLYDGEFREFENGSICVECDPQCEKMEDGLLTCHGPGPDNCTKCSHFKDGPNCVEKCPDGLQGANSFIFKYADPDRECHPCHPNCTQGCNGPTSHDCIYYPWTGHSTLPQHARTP
Source text: as §1, §2, §3

human EGFR = target: T3, human EGFR (Homo sapiens, UniProt P00533); test: as above; conditions: recombinant extracellular domain protein
T3 construct: recombinant extracellular domain proteins: human EGFR, human HER2, human HER3, human HER4, mouse Her2, or cynomolgus monkey Her2
Source text: as §1, §2, §3

[1] = target: T4, HER2:HER3 heterodimerization (Homo sapiens, UniProt P04626); test: Disruption of HER2:HER3 heterodimerization (IP/Western, T47D cells); assay type: cell-based; conditions: 500 nM antibody, heregulin-b1 8 ng/mL
T4 construct: endogenous in cells; host or cells: T47D
Protocol: Cells were seeded at a density of 1×10^6 cells/well in a 6-well plate and then incubated overnight at 37° C./5% CO2. […] After pre-treatment, heregulin-β1 was added at a final concentration of 8 ng/mL and cells were incubated for 5 min at 37° C./5% CO2. Cells were then washed twice with ice-cold 1×PBS, lysed and immune-precipitated using mouse anti-human HER2 (clone 44E7) antibody and the Pierce Classic IP Kit from Thermo Scientific according to manufacturer's instructions. Immune-precipitated protein samples were eluted in Laemmli buffer containing 2-mecaptoethanol and analyzed by Western blot using standard protocol. Rabbit anti-human HER2 (clone 29D8) antibody was used to detect HER2 and rabbit anti-human HER3 (C-17) polyclonal antibody was used to detect HER3 in the Western blot analysis.

| Molecule | In vitro potency (EC50 in pM) (MCF7-GTU) | EC50 (MDA-MB-453) [pM] | in vivo activity (tumor growth) (ST225 model) | In vitro potency (EC50 in pM) (MCF-7) | In vitro potency (EC50 in pM) (JIMT-1) | binding by capture ELISA (cynomolgus monkey Her2) | binding by capture ELISA (human HER3) | binding by capture ELISA (human HER4) | binding by capture ELISA (human EGFR) | disruption of HER2:HER3 heterodimerization induced by ligand stimulation [1] |
| --- | --- | --- | --- | --- | --- | --- | --- | --- | --- | --- |
| T-DM1 [reference compound] | Inactive | 344 | tumor stasis | Inactive | Inactive | – | – | – | – | – |
| B1 | – | – | – | – | – | can bind | not | not | not | can disrupt |
